Test results: patent US9546172B2, “Pyrazolo[3,4-d]pyrimidine and pyrazolo[2,3-d]pyrimidine compounds as kinase inhibitors” (Pharmacyclics LLC, priority 2011, dated 2017)

target: T1, Btk (Homo sapiens, UniProt Q06187); experiment: Btk in vitro inhibitory activity (one of Methods A, B, C); type: biochemical; settings: determined in one of three in vitro assays (Examples 125-127)
T1 construct: purified from insect cells as a full-length construct containing a N-terminal 6×-His tag; 6xHis (N); host or cells: insect cells (baculovirus Sf21 in Method B)
Procedure: The Btk IC50s of compounds disclosed herein was determined in one of the three in vitro assays described in Examples 125-127.
Btk kinase activity was determined using a time-resolved fluorescence resonance energy transfer (TR-FRET) methodology. Measurements were performed in a reaction volume of 50 μL using 96-well assay plates. […] The reaction was quenched by the addition of 1.2 equivalents of EDTA (relative to divalent cation) in 25 μL of 1× Lance buffer (Perkin-Elmer). Streptavidin-APC (Perkin-Elmer) and Eu-labeled p-Tyr100 antibody (Perkin-Elmer) in 1× Lance buffer were added in a 25 μL volume to give final concentrations of 100 nM and 2.5 nM, respectively, and the mixture was allowed to incubate for one hour. The TR-FRET signal was measured on a multimode plate reader with an excitation wavelength (λEx) of 330 nm and detection wavelengths (λEm) of 615 and 665 nm. Activity was determined by the ratio of the fluorescence at 665 nm to that at 615 nm. For each compound, enzyme activity was measured at various concentrations of compound. Negative control reactions were performed in the absence of inhibitor in replicates of six, and two no-enzyme controls were used to determine baseline fluorescence levels Inhibition constants, Ki(app), were obtained using the program BatchKi (Kuzmic et al. (2000), Anal. Biochem. 286:45-50). IC50s were obtained according to the equation: IC50={Ki(app)/(1+[ATP]/Km^ATP)}+[E]total/2; For all kinases, [ATP]=Km^ATP, [Btk]total=0.5 nM and [Lck]total=6 nM.
Kinase activity is measured in vitro using electrophoretic mobility shift assay. The kinase reactions are assembled in a total volume of 25 μL in 384 well plates. […] The reaction is incubated for one hour and is quenched by the addition of 45 μL of termination buffer (100 mM HEPES, pH7.5, 0.01% Triton X-100, 30 mM EDTA). The terminated reactions are analyzed using 12 channel LabChip® 3000 microfluidic detection instrument (Caliper Life Sciences). The enzymatic phosphorylation of the peptide results in a change in net charge, enabling electrophoretic separation of product from substrate peptide. As substrate and product peptides are separated, two peaks of fluorescence are observed. Change in the relative fluorescence intensity of the substrate and product peaks is the parameter measured, reflecting enzyme activity. In the presence of an inhibitor, the ratio between product and substrate is altered: the signal of the product decreases, while the signal of the substrate increases.
Activity in each sample is determined as the product to sum ratio (PSR): P/(S+P), where P is the peak height of the product peptide and S is the peak height of the substrate peptide. For each compound, enzyme activity is measured at various concentrations (12 concentrations of compound spaced by 3× dilution intervals). Negative control samples (0%-inhibition in the absence of inhibitor) and positive control samples (100%-inhibition, in the presence of 20 mM EDTA) are assembled in replicates of four and are used to calculate %-inhibition values for each inhibitor at each concentration. Percent inhibition (Pinh) is determined using following equation: Pinh=(PSR0%−PSRinh)/(PSR0%−PSR100%)*100, where PSRinh is the product sum ratio in the presence of inhibitor, PSR0% is the average product sum ration in the absence of inhibitor and PSR100% is the average product sum ratio in 100%-inhibition control samples;
The IC50 values of inhibitors are determined by 4 parameter sigmoidal dose-response model fitting of the inhibition curves (Pinh versus inhibitor concentration) using XLfit 4 software.
Human Btk kinase (Genbank accession # NP_000052) was purified from insect cells as a full-length construct containing a N-terminal 6×-His tag. Btk kinase activity was determined using a radiometric filter binding assay. Measurements are performed in a low reaction volume 384-well assay plates. […]

T1 sequence (Q06187 whole entry): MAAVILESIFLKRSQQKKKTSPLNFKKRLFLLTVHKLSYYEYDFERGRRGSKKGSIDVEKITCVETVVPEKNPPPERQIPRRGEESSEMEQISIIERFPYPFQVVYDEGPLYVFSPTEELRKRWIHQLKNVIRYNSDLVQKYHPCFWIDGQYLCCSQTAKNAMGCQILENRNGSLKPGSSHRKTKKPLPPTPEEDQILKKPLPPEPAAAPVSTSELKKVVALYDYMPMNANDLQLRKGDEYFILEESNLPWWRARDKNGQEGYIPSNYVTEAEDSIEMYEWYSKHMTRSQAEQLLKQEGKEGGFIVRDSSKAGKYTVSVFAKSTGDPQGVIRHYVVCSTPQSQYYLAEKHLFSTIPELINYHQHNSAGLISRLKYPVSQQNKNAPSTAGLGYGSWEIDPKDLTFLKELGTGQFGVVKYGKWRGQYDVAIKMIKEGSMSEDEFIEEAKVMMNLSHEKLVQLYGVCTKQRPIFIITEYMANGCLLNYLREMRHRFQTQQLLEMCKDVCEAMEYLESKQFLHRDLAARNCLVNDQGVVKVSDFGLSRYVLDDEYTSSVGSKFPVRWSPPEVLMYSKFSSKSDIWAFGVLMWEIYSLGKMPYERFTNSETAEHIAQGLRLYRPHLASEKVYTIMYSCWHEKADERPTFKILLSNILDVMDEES

IC50, < 100 nM:
COc1cc(-c2nn(-c3cccc(N(C)C(=O)/C=C/CN(C)C)n3)c3ncnc(N)c23)ccc1C [Example 30]
CN(C)C/C=C/C(=O)N(C)c1cccc(-n2nc(-c3ccc(Cl)cc3)c3c(N)ncnc32)n1 [Example 31]
CN(C(=O)/C=C/CN(C)C1CC1)c1ccc(-n2nc(-c3ccc(Cl)cc3)c3c(N)ncnc32)cc1 [Example 32]
CCN(C/C=C/C(=O)N(C)c1ccc(-n2nc(-c3ccc(Cl)cc3)c3c(N)ncnc32)cc1)C1CC1 [Example 33]
CN(C(=O)/C=C/CN(C)C1CCC1)c1ccc(-n2nc(-c3ccc(Cl)cc3)c3c(N)ncnc32)cc1 [Example 34]
COc1cc(-c2nn(-c3cccc(NC(=O)/C=C/CN(C)C)c3)c3ncnc(N)c23)ccc1C [Example 35]
C=CC(=O)N1CC[C@@H](n2nc(-c3ccc(Cl)cc3)c3c(N)ncnc32)C1 [Example 36]
C=CC(=O)N(C)c1cccc(-n2nc(-c3ccc(C)c(OC)c3)c3c(N)ncnc32)c1 [Example 37]
COc1cc(-c2nn(-c3cccc(N(C)C(=O)/C=C/CN(C)C)c3)c3ncnc(N)c23)ccc1C [Example 38]
COc1cc(-c2nn(-c3ccc(N(C)C(=O)/C=C/CN(C)C4CCC4)cc3)c3ncnc(N)c23)ccc1C [Example 40]
COCCOc1ccc(-n2nc(-c3ccc(C)c(OC)c3)c3c(N)ncnc32)cc1NC(=O)/C=C/CN(C)C [Example 41]
COc1cc(-c2nn(-c3cccc(N(C)C(=O)/C=C/CN4CCOCC4)c3)c3ncnc(N)c23)ccc1C [Example 44]
COc1cc(-c2nn([C@@H]3CCCN(C(=O)/C=C/CN(C)C)C3)c3ncnc(N)c23)ccc1C [Example 45]
CN(C)C/C=C/C(=O)N1CCC[C@@H](n2nc(-c3ccc(Cl)cc3)c3c(N)ncnc32)C1 [Example 46]
CN(C)C/C=C/C(=O)N1CCC(n2nc(-c3ccc(Cl)cc3)c3c(N)ncnc32)CC1 [Example 47]
COc1cc(-c2nn(CC3CCN(C(=O)/C=C/CN(C)C)CC3)c3ncnc(N)c23)ccc1C [Example 48]
COc1cc(-c2nn(C[C@@H]3CCCN3C(=O)/C=C/CN(C)C)c3ncnc(N)c23)ccc1C [Example 49]
COc1cc(-c2nn(C[C@H]3CCCN3C(=O)/C=C/CN(C)C)c3ncnc(N)c23)ccc1C [Example 50]
CN(C)C/C=C/C(=O)N(C)c1cc(-n2nc(-c3ccc(Cl)cc3)c3c(N)ncnc32)ccc1F [Example 51]
COc1cc(-c2nn(-c3ccc(N(C)C(=O)/C=C/CN(C)C)c(Cl)c3)c3ncnc(N)c23)ccc1C [Example 52]
COc1cc(-c2nn(C3CCN(C(=O)/C=C/CN(C)C)CC3)c3ncnc(N)c23)ccc1C [Example 53]
COc1cc(-c2nn([C@@H]3CCN(C(=O)/C=C/CN(C)C)C3)c3ncnc(N)c23)c(F)cc1C [Example 54]
COc1cc(-c2nn(-c3cccc(N(C)C(=O)/C=C/CN(C)C)c3)c3ncnc(N)c23)c(F)cc1C [Example 55]
COc1cc(-c2nn(C3CCN(C(=O)/C=C/CN(C)C4CC4)CC3)c3ncnc(N)c23)ccc1C [Example 57]
COc1cc(-c2nn([C@H]3CC[C@@H](NC(=O)/C=C/CN(C)C4CC4)CC3)c3ncnc(N)c23)ccc1C [Example 59]
COc1cc(-c2nn([C@@H]3CCN(C(=O)/C=C/CN(C)C4CC4)C3)c3ncnc(N)c23)ccc1C [Example 60]
CN(C/C=C/C(=O)N1CC[C@@H](n2nc(-c3ccc(Cl)cc3)c3c(N)ncnc32)C1)C1CC1 [Example 61]
COc1cc(-c2nn(-c3ccc(N(C)C(=O)/C=C/CN(C)C)c(F)c3)c3ncnc(N)c23)ccc1C [Example 62]
COc1cc(-c2nn(-c3ccc(F)c(N(C)C(=O)/C=C/CN(C)C)c3)c3ncnc(N)c23)ccc1C [Example 63]
COc1cc(-c2nn(C3CN(C(=O)/C=C/CN(C)C)C3)c3ncnc(N)c23)ccc1C [Example 64]
CN(C)C/C=C/C(=O)N1CC(n2nc(-c3ccc(Cl)cc3)c3c(N)ncnc32)C1 [Example 65]
CN(C/C=C/C(=O)N1CC(n2nc(-c3ccc(Cl)cc3)c3c(N)ncnc32)C1)C1CC1 [Example 66]
COc1cc(-c2nn(C3CN(C(=O)/C=C/CN(C)C4CC4)C3)c3ncnc(N)c23)ccc1C [Example 67]
COc1cc(-c2nn(-c3ccc(N(C)C(=O)/C=C/CN(C)C4CC4)c(F)c3)c3ncnc(N)c23)ccc1C [Example 68]
CN(C(=O)/C=C/CN(C)C1CC1)c1cc(-n2nc(-c3ccc(Cl)cc3)c3c(N)ncnc32)ccc1F [Example 69]
COCCOc1ccc(-n2nc(-c3ccc(C)c(OC)c3)c3c(N)ncnc32)cc1N(C)C(=O)/C=C/CN(C)C [Example 70]
COc1cc(-c2nn(C[C@H]3CCN(C(=O)/C=C/CN(C)C)C3)c3ncnc(N)c23)ccc1C [Example 72]
COc1cc(-c2nn([C@H]3CC[C@@H](N(C)C(=O)/C=C/CN(C)C)CC3)c3ncnc(N)c23)ccc1C [Example 73]
COc1cc(-c2nn(-c3ccc(F)c(N(C)C(=O)/C=C/CN(C)C4CC4)c3)c3ncnc(N)c23)ccc1C [Example 76]
COc1cc(-c2nn(-c3ccc(OCC(C)(C)O)c(N(C)C(=O)/C=C/CN(C)C)c3)c3ncnc(N)c23)ccc1C [Example 77]
C=CC(=O)N1CCC(n2nc(-c3ccc(C)c(OC)c3)c3c(N)ncnc32)CC1 [Example 78]
C=CC(=O)N1CC(n2nc(-c3ccc(C)c(OC)c3)c3c(N)ncnc32)C1 [Example 79]
C=CC(=O)N1CCC(n2nc(-c3ccc(Cl)cc3)c3c(N)ncnc32)CC1 [Example 80]
C=CC(=O)N1CC(n2nc(-c3ccc(Cl)cc3)c3c(N)ncnc32)C1 [Example 81]
COc1cc(-c2nn(-c3ccc(N(C)S(=O)(=O)/C=C/CN(C)C)cc3)c3ncnc(N)c23)ccc1C [Example 82]
C=CC(=O)N1CC[C@@H](n2nc(-c3ccc(C)c(OC)c3)c3c(N)ncnc32)C1 [Example 83]
C=CC(=O)N1CCC[C@@H](n2nc(-c3ccc(C)c(OC)c3)c3c(N)ncnc32)C1 [Example 84]
C=CC(=O)N1CCC[C@@H](n2nc(-c3ccc(Cl)cc3)c3c(N)ncnc32)C1 [Example 85]
C=CC(=O)N1CC[C@@H](n2nc(-c3ccc(F)c(OC)c3)c3c(N)ncnc32)C1 [Example 85b]
C=CC(=O)N1CC[C@@H](n2nc(-c3ccc(F)cc3)c3c(N)ncnc32)C1 [Example 85c]
C=CC(=O)N1CC[C@@H](n2nc(-c3ccc(C)cc3)c3c(N)ncnc32)C1 [Example 85d]
